Series [1] in a line: Protease assay with trypsin. It is filed as in vitro ADME. Conditions: trypsin (isolated protease) in buffer; 100 mM TRIS–HCl pH 8.0 without CaCl2; peptide 100 mM (so in the source); protease stock 0.5 mg/mL; samples at 2, 6, 25, 60 min; HPLC–MS; < 24 = peak not detected at 2 min, 3% detection limit.
A short description of series [2]: Protease assay with chymotrypsin. It is filed as in vitro ADME. Conditions: chymotrypsin (isolated protease) in buffer; 100 mM TRIS–HCl pH 8.0 with 10 mM CaCl2; peptide 100 mM (so in the source); 50 mL of 0.5 mg/mL chymotrypsin stock to 500 mL peptide solution (so in the source); samples at 2, 6, 25, 60 min; HPLC–MS; < 24 = peak not detected at 2 min, 3% detection limit. The procedure:
(§1) Protease assays: Peptides were dissolved in 100 mM TRIS–HCl buffer (pH 8.0) containing 10 mM CaCl2 at 100 mM concentration. Chymotrypsin (Sigma-Aldrich, Budapest, Hungary) stock solution was 0.5 mg/mL in the same buffer. A total […] peptide solution was measured in a reaction vessel and […] protease stock was added. Samples of […] were taken after 2, 6, 25 and 60 min. The samples were diluted into […] 5% TFA aliquots. The samples were then injected into HPLC–MS using a Phenomenex C18-XB Peptide column (250 × 4.6 mm, […]).

The target of series [3] is ganglioside GM1. The series is described as follows: Isothermal titration calorimetry (ITC) with GM1:DPC 1:5 bicelles. It is filed as binding. Conditions: 35 °C, GM1:DPC 1:5 (GM1 300 µM in syringe) injected into 15 µM ligand in cell, pH 7.2 phosphate buffer, one- or two-site fit, experiments repeated twice; for Kd: read-out: Binding affinities (KD) to ganglioside GM1. The procedure: Isothermal Titration Calorimetry: ITC was performed using a MicroCal VP-ITC microcalorimeter at 35 °C. The monosialoganglioside GM1 was obtained from Biosynth-Carbosynth (Bratislava, Slovakia, product code: OG03918, C73H131N3O31·xNa, HPLC purity > 95%). The n-dodecylphosphocholine (DPC) was obtained from Avanti (Alabaster, Alabama, product code: 850336, C17H38NO4P, purity > 99%). In individual titrations, 15 µL of solution containing GM1:DPC 1:5 was injected into the ligand solution in the cell from a computer-controlled 300 µL microsyringe at time intervals of 300 s. The GM1:DPC micelle mixture was prepared in the same pH 7.2 phosphate buffer as the ligand in the cell. The concentration of the ligand in the cell was 15 µM. The concentration of GM1 in the syringe was 300 µM. In control experiments, GM1:DPC was titrated into the cell containing buffer without ligand. To rule out lipid clustering, control measurements were performed with pure GM1 in the syringe, which yielded a […], indicating the GM1:DPC interaction in the micelles (Figure S6). No aggregation of the micelles was observed after titration, which rules out any secondary inter-particle effects induced by ligand binding. We note that such an uncontrolled aggregation phenomenon would have been detrimental to the very sensitive ITC detection. Our finding is in agreement with the literature results that mixed micelles of GM1 and DPC are readily formed. The experiments were repeated twice. The experimental data were fitted to one-binding-site or two-independent-site models with adjustable parameters of ΔHb1, Kd1, n1, and ΔHb2, Kd2, n2, respectively. Background subtraction and spline baseline correction was applied prior to the application of a generalized reduced gradient nonlinear least-squares procedure. […] Errors were estimated by using jack-knife resampling.

Series [4] concerns the target T1, Chymotrypsin (Bos taurus, UniProt P00766).
T1 construct: purchased Sigma-Aldrich
In words: Protease assay with chymotrypsin. It is filed as in vitro ADME. Conditions: chymotrypsin (isolated protease) in buffer; 100 mM TRIS–HCl pH 8.0 with 10 mM CaCl2; peptide 100 mM (so in the source); 50 mL of 0.5 mg/mL chymotrypsin stock to 500 mL peptide solution (so in the source); samples at 2, 6, 25, 60 min; HPLC–MS; < 24 = peak not detected at 2 min, 3% detection limit. On the procedure: as §1

No end group written: not given here.

In general, half-life refers to the time needed for the level to fall by half in the phase considered. For `NCCCC[C@H](NC(=O)[C@H](Cc1ccc(O)cc1)NC(=O)C[C@@H](N)Cc1c[nH]c2ccccc12)C(=O)N[C@@H](Cc1ccc(O)cc1)C(=O)N[C@@H](Cc1c[nH]c2ccccc12)C(N)=O` [WβYKYW], the results for the half-life in series [1] and in series [2] were 1.83 min and less than 0.4 min, respectively.

Broadly, the Kd is the free concentration of one partner at which half of the binding sites on the other are occupied at equilibrium, for simple one-to-one binding. Turning to WYKAW-NH2 [WYKAW], the Kd in series [3] turned out to be 1.69 µM.

Take “AYKYW [Ala derivative of WYKYW, position 1]”: the “Binding affinities (KD) to ganglioside GM1” value in series [3] is “n.f. ^[a]”.

On to WYAYW-NH2 [WYAYW], for which the Kd in series [3] worked out at 10.5 µM.

Turning to `NCCCC[C@H](NC(=O)C[C@H](Cc1ccc(O)cc1)NC(=O)[C@@H](N)Cc1c[nH]c2ccccc12)C(=O)N[C@@H](Cc1ccc(O)cc1)C(=O)N[C@@H](Cc1c[nH]c2ccccc12)C(N)=O` [WYβKYW], the half-life in series [1] is 15 min; in series [4], 1.25 min.

For `NCCCC[C@H](NC(=O)[C@H](Cc1ccc(O)cc1)NC(=O)[C@@H](N)Cc1c[nH]c2ccccc12)C(=O)N[C@H](CC(=O)N[C@@H](Cc1c[nH]c2ccccc12)C(N)=O)Cc1ccc(O)cc1` [WYKYβW], the half-life was 6.83 min in series [1] and less than 0.4 min in series [2].

Turning to WYKYA-NH2 [WYKYA], the Kd in series [3] turned out to be 1.06 µM.

In the case of `NCCCC[C@@H](CC(=O)N[C@@H](Cc1ccc(O)cc1)C(=O)N[C@@H](Cc1c[nH]c2ccccc12)C(N)=O)NC(=O)[C@H](Cc1ccc(O)cc1)NC(=O)[C@@H](N)Cc1c[nH]c2ccccc12` [WYKβYW], the half-life in series [4] is 10.8 min.

Take WAKYW-NH2 [WAKYW]: the Kd in series [3] was 5.75 µM.

In the case of `NCCCC[C@H](NC(=O)[C@H](Cc1ccc(O)cc1)NC(=O)[C@@H](N)Cc1c[nH]c2ccccc12)C(=O)N[C@@H](Cc1ccc(O)cc1)C(=O)N[C@H](CC(N)=O)Cc1c[nH]c2ccccc12` [WYKYWβ], the half-life in series [1] and in series [2] was less than 0.4 min throughout.
